Assay results from US7473669B2, “Substituted 4,5-dihydro-1,2,4-triazin-6-ones, 1,2,4-triazin-6-ones, and their use as fungicides” (priority 2005, dated 2009).

Assays:
Type in all cases: in vivo
Colletotricum lagenarium = assay: Cucumber Anthracnose greenhouse one-day protectant test; conditions: Cucumis sativus, 24 h, cucumber plants, one-day protectant test, 200 ppm application rate; read-out: COLLLA percent control rating
[1] = test system: Puccinia recondita tritici; assay: Leaf Rust of Wheat greenhouse one-day protectant test; conditions: 24 h, wheat plants, one-day protectant test, 200 ppm application rate, read-out: PUCCRT percent control rating
Phytophthora infestans = assay: whole plant or invertebrate; conditions: in Solanum lycopersicum, 24 h, read-out: PHYTIN percent control rating, tomato plants, one-day protectant test, 200 ppm application rate
Pyricularia oryzae = assay: whole plant or invertebrate; conditions: 24 h, read-out: PYRIOR percent control rating
Erysiphe cichoracaerum = assay: Cucumber Powdery Mildew greenhouse one-day protectant test; conditions: 24 h, cucumber plants, one-day protectant test, 200 ppm application rate, read-out: ERYSCI percent control rating
Leptosphaeria nodorum = assay: Glume Blotch of Wheat greenhouse one-day protectant test; conditions: Parastagonospora nodorum, 24 h; wheat plants, one-day protectant test, 200 ppm application rate; read-out: LEPTNO percent control rating

Row | SMILES | pest or weed control at 200 ppm (Colletotricum lagenarium) [%] | pest or weed control at 200 ppm [1] [%] | pest or weed control at 200 ppm (Phytophthora infestans) [%] | pest or weed control at 200 ppm (Pyricularia oryzae) [%] | pest or weed control at 200 ppm (Erysiphe cichoracaerum) [%] | pest or weed control at 200 ppm (Leptosphaeria nodorum) [%]
1 | COc1ccccc1-c1cccc(C2=NN(CC(F)(F)F)C(=O)C(SC3CCCCC3)N2)c1 (stereo not drawn) [Compound 53] | 50 to 79 | 80 to 100 | 0 to 49 | 80 to 100 | 0 to 49 | 80 to 100
2 | O=C(c1ccccc1)c1cccc(C2=NN(CC(F)(F)F)C(=O)C(SC3CCCCC3)N2)c1 (stereo not drawn) [Compound 54] | 50 to 79 | 50 to 79 | 0 to 49 | 80 to 100 | 0 to 49 | 80 to 100
3 | O=C1C(SC2CCCCC2)NC(c2cccc(-c3ccsc3)c2)=NN1CC(F)(F)F (stereo not drawn) [Compound 55] | 50 to 79 | 50 to 79 | 0 to 49 | 80 to 100 | 0 to 49 | 80 to 100
4 | CON=C(c1ccccc1)c1cccc(C2=NN(CC(F)(F)F)C(=O)C(SC3CCCCC3)N2)c1 (stereo not drawn) [Compound 56] | 0 to 49 | 50 to 79 | 0 to 49 | 80 to 100 | 0 to 49 | 80 to 100
5 | O=C1C(SC2CCCCC2)NC(c2cccc(C(=NOCc3ccccc3)c3ccccc3)c2)=NN1CC(F)(F)F (stereo not drawn) [Compound 57] | 0 to 49 | 0 to 49 | 0 to 49 | 0 to 49 | 0 to 49 | 0 to 49
6 | O=C1CNC(c2ccc(N3CCOCC3)cc2)=NN1CC(F)(F)F [Compound 58] | 0 to 49 | 0 to 49 | 0 to 49 | 80 to 100 | 50 to 79 | 0 to 49
7 | O=C1CNC(c2ccc(Oc3cccnc3)cc2)=NN1CC(F)(F)F [Compound 59] | 0 to 49 | 80 to 100 | 50 to 79 | 50 to 79 | 0 to 49 | 50 to 79
8 | O=C1CNC(c2csc(-c3ccccc3)c2)=NN1CC(F)(F)F [Compound 60] | 0 to 49 | 0 to 49 | 0 to 49 | 80 to 100 | 0 to 49 | 80 to 100
9 | CCCCN1N=C(c2cc(-c3ccsc3)cc(-c3ccsc3)c2)NCC1=O [Compound 62] | 0 to 49 | 0 to 49 | 0 to 49 | 0 to 49 | 0 to 49 | 80 to 100
10 | Cc1cc(C)cc(C2=NN(Cc3c(F)c(F)c(F)c(F)c3F)C(=O)CN2)c1 [Compound 63] | 0 to 49 | 0 to 49 | 0 to 49 | 50 to 79 | 0 to 49 | 50 to 79
11 | Cc1cc(C)cc(C2=NN(CCOc3ccccc3)C(=O)CN2)c1 [Compound 64] | 50 to 79 | 80 to 100 | 0 to 49 | 80 to 100 | 0 to 49 | 80 to 100
12 | O=C1CNC(c2cc(Cl)cc(Cl)c2)=NN1Cc1c(F)c(F)c(F)c(F)c1F [Compound 65] | 80 to 100 | 0 to 49 | 0 to 49 | 50 to 79 | 0 to 49 | 80 to 100
13 | O=C1CNC(c2cc(Cl)cc(Cl)c2)=NN1CCOc1ccccc1 [Compound 66] | 80 to 100 | 80 to 100 | 0 to 49 | 80 to 100 | 0 to 49 | 80 to 100
14 | O=C1CNC(c2cc(Br)cc(-c3ccsc3)c2)=NN1Cc1ccccc1 [Compound 68] | 0 to 49 | 0 to 49 | 0 to 49 | 80 to 100 | 0 to 49 | 80 to 100
15 | O=C1CNC(c2cc(Br)cc(-c3ccsc3)c2)=NN1CCc1ccccc1 [Compound 69] | 0 to 49 | 0 to 49 | 0 to 49 | 50 to 79 | 0 to 49 | 50 to 79
